Laboratory results as given in ChEMBL document CHEMBL3399988, “Ritonavir-boosted indinavir but not lopinavir inhibits erythrocytic stage Plasmodium knowlesi malaria in rhesus macaques” (Bioorg Med Chem Lett, 2015).
Calls of active or inactive are those of the source. No cut-off for these calls is given here.

Assays:
[1] = system: Plasmodium knowlesi; assay: Antimalarial activity against Plasmodium knowlesi infected Chinese rhesus macaques assessed as parasitemia level in blood smears at 40 mg/kg, intragastric treated 5 days before infection measured between day 0 to 7 by Giemsa-staining in presence of ritonavir 10 mg/kg, intragastric once daily; assay type: functional, organism-based
[2] = system: Plasmodium knowlesi; assay: Antimalarial activity against Plasmodium knowlesi infected Chinese rhesus macaques assessed as parasitemia level in blood smears at 40 mg/kg, intragastric treated 5 days before infection measured between day 0 to 7 by Giemsa-staining in presence of ritonavir 5 mg/kg, intragastric twice daily; assay type: functional, organism-based

`Cc1cccc(C)c1OCC(=O)N[C@@H](Cc1ccccc1)[C@@H](O)C[C@H](Cc1ccccc1)NC(=O)[C@H](C(C)C)N1CCCNC1=O` was tested, and the inhibition [1] was “inactive”.
For `CC(C)(C)NC(=O)[C@@H]1CN(Cc2cccnc2)CCN1C[C@@H](O)C[C@@H](Cc1ccccc1)C(=O)N[C@H]1c2ccccc2C[C@H]1O`, the inhibition [2] was “Active”.
